Data: PMC6001238, “Iterative Chemical Engineering of Vancomycin Leads to Novel Vancomycin Analogs With a High in Vitro Therapeutic Index” (Frontiers in Microbiology, 2018)
In brackets after ≈: the same amount, converted by molar mass.

Legend:
[1] = tested on: E. faecalis VRE 37; assay: MIC, broth microdilution, vancomycin-resistant E. faecalis VRE 37 (VanA); format: cell-based, Enterococcus faecalis; conditions: for MIC: Enterococcus faecalis VRE 37 (vancomycin-resistant), read-out: MIC; for MIC-fold improvement vs. vancomycin: VRE 37, ratio of MIC of vancomycin and MIC of analogue
Summary of the method: (§1)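 Assayed by broth microdilution under CLSI antimicrobial testing rules. One case paired the analog or control drug with vancomycin at a 10 μM final concentration; water and inoculum-free broth were controls.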

[2] = tested on: MRSA KS89; assay: MIC, broth microdilution, MRSA KS89; format: cell-based, Staphylococcus aureus; conditions: for MIC-fold improvement vs. vancomycin: MRSA KS8, ratio of MIC of vancomycin and MIC of analogue; for MIC: Staphylococcus aureus MRSA KS8, read-out: MIC
Summary of the method: as §1

[3] = tested on: MRSA KS6; assay: MIC, broth microdilution, MRSA KS6; format: cell-based, Staphylococcus aureus; conditions: for MIC-fold improvement vs. vancomycin: MRSA KS6, ratio of MIC of vancomycin and MIC of analogue; for MIC: Staphylococcus aureus MRSA KS6, read-out: MIC
Summary of the method: as §1

[4] = tested on: E. faecalis VSE 1; assay: MIC, broth microdilution, vancomycin-sensitive E. faecalis (VSE 1); format: cell-based, Enterococcus faecalis; conditions: for MIC: Enterococcus faecalis VSE 1 (vancomycin-sensitive), read-out: MIC; for MIC-fold improvement vs. vancomycin: VSE 1, ratio of MIC of vancomycin and MIC of analogue
Summary of the method: as §1

[5] = tested on: E. faecalis VRE 53; assay: MIC, broth microdilution, vancomycin-resistant E. faecalis VRE 53 (VanA); format: cell-based, Enterococcus faecalis; conditions: for MIC: Enterococcus faecalis VRE 53 (vancomycin-resistant), read-out: MIC; for MIC-fold improvement vs. vancomycin: VRE 53, ratio of MIC of vancomycin and MIC of analogue
Summary of the method: as §1

[6] = tested on: S. aureus VRSA; assay: MIC, broth microdilution, vancomycin-resistant S. aureus (VRSA); format: cell-based, Staphylococcus aureus; conditions: for MIC: Staphylococcus aureus VRSA, read-out: MIC; for MIC-fold improvement vs. vancomycin: VRSA, ratio of MIC of vancomycin and MIC of analogue
Summary of the method: as §1

[7] = tested on: E. faecalis VRE 6; assay: MIC, broth microdilution, vancomycin-resistant E. faecalis VRE 6 (VanA); format: cell-based, Enterococcus faecalis; conditions: for MIC: Enterococcus faecalis VRE 6 (vancomycin-resistant), read-out: MIC; for MIC-fold improvement vs. vancomycin: VRE 6, ratio of MIC of vancomycin and MIC of analogue
Summary of the method: as §1

[8] = tested on: S. aureus VISA/HIP5827; assay: MIC, broth microdilution, vancomycin-intermediate S. aureus VISA HIP5827; format: cell-based, Staphylococcus aureus; conditions: for MIC: Staphylococcus aureus VISA/HIP5827, read-out: MIC; for MIC-fold improvement vs. vancomycin: VISA/HIP5827, ratio of MIC of vancomycin and MIC of analogue
Summary of the method: as §1

[9] = tested on: Murine leukemia (L1210) cells; assay: Cytostatic activity, L1210 cell proliferation; format: cell-based; conditions: mean ± SD of three experiments; highest concentration tested 250 µM; 2 days; read-out: Toxicity (IC50) L1210
Summary of the method: (§2)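 Suspensions (300,000–500,000 cells/mL) combined with equal volumes of diluted compound; 37°C; L1210 2 d / CEM 3 d / HeLa 4 d; counted by Coulter counter; IC50 vs untreated wells.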

[10] = tested on: S. aureus VSSA (ATCC 6538); assay: MIC, broth microdilution, vancomycin-sensitive S. aureus (VSSA/MSSA, ATCC 6538); format: cell-based, Staphylococcus aureus; conditions: for MIC: Staphylococcus aureus VSSA, read-out: MIC; for MIC-fold improvement vs. vancomycin: VSSA, ratio of MIC of vancomycin and MIC of analogue
Summary of the method: as §1

[11] = tested on: human cervix carcinoma (HeLa) cells; assay: Cytostatic activity, HeLa cell proliferation; format: cell-based; conditions: mean ± SD of three experiments; highest concentration tested 250 µM; 4 days; read-out: Toxicity (IC50) HeLa
Summary of the method: as §2

[12] = tested on: MRSA KS2; assay: MIC, broth microdilution, MRSA KS2; format: cell-based, Staphylococcus aureus; conditions: for MIC-fold improvement vs. vancomycin: MRSA KS2, ratio of MIC of vancomycin and MIC of analogue; for MIC: Staphylococcus aureus MRSA KS2, read-out: MIC
Summary of the method: as §1

[13] = tested on: L1210, CEM and HeLa cell lines; assay: Cytostatic activity, average or summary over L1210, CEM and HeLa; format: cell-based; conditions: average of L1210, CEM and HeLa; read-out: Toxicity (IC50) Average
Summary of the method: as §2

[14] = tested on: E. faecalis VRE 29; assay: MIC, broth microdilution, vancomycin-resistant E. faecalis VRE 29 (VanA); format: cell-based, Enterococcus faecalis; conditions: for MIC: Enterococcus faecalis VRE 29 (vancomycin-resistant), read-out: MIC; for MIC-fold improvement vs. vancomycin: VRE 29, ratio of MIC of vancomycin and MIC of analogue
Summary of the method: as §1

[15] = tested on: MRSA KS1; assay: MIC, broth microdilution, MRSA KS1; format: cell-based, Staphylococcus aureus; conditions: for MIC-fold improvement vs. vancomycin: MRSA KS1, ratio of MIC of vancomycin and MIC of analogue; for MIC: Staphylococcus aureus MRSA KS1, read-out: MIC
Summary of the method: as §1

[16] = tested on: human T-lymphocyte (CEM) cells; assay: Cytostatic activity, CEM cell proliferation; format: cell-based; conditions: mean ± SD of three experiments; highest concentration tested 250 µM; 3 days; read-out: Toxicity (IC50) CEM
Summary of the method: as §2

Compound | MIC [1] [µM] | MIC-fold improvement vs. vancomycin [2] | MIC [2] [µM] | MIC-fold improvement vs. vancomycin [3] | MIC [3] [µM] | MIC [4] [µM] | MIC-fold improvement vs. vancomycin [4] | MIC [5] [µM] | MIC-fold improvement vs. vancomycin [5] | MIC [6] [µM] | MIC-fold improvement vs. vancomycin [6] | MIC [7] [µM] | MIC-fold improvement vs. vancomycin [7] | MIC [8] [µM] | MIC-fold improvement vs. vancomycin [8] | IC50 [9] [µM] | MIC [10] [µM] | MIC-fold improvement vs. vancomycin [10] | IC50 [11] [µM] | MIC-fold improvement vs. vancomycin [12] | further results
CN[C@H](CC(C)C)C(=O)N[C@H]1C(=O)N[C@@H](CC(N)=O)C(=O)N[C@H]2C(=O)N[C@H]3C(=O)N[C@H](C(=O)N[C@H](C(=O)NCCNC(=O)/C=C/c4ccc(NS(=O)(=O)c5ccccc5)cc4)c4cc(O)cc(O)c4-c4cc3ccc4O)[C@H](O)c3ccc(c(Cl)c3)Oc3cc2cc(c3O[C@@H]2O[C@H](CO)[C@@H](O)[C@H](O)[C@H]2O[C@H]2C[C@](C)(N)[C@H](O)[C@H](C)O2)Oc2ccc(cc2Cl)[C@H]1O [Vanc-54] | 25 (≈ 44.4 µg/mL) | 2 | 0.39 (≈ 0.693 µg/mL) | 2 | 0.39 (≈ 0.693 µg/mL) | 0.78 (≈ 1.39 µg/mL) | 2 | 25 (≈ 44.4 µg/mL) | 16 | 0.39 (≈ 0.693 µg/mL) | 256 | 12.5 (≈ 22.2 µg/mL) | 16 | 0.78 (≈ 1.39 µg/mL) | 8 | > 250 | 0.39 (≈ 0.693 µg/mL) | 2 | 54 ± 29 | 2 | MIC-fold improvement vs. vancomycin [1]: 16; MIC [12]: 0.39 µM (≈ 0.693 µg/mL); IC50 [13]: 185 µM; MIC [14]: 25 µM (≈ 44.4 µg/mL); MIC-fold improvement vs. vancomycin [14]: 16; MIC-fold improvement vs. vancomycin [15]: 2; MIC [15]: 0.39 µM (≈ 0.693 µg/mL); IC50 [16]: ≥ 250 µM
CN[C@H](CC(C)C)C(=O)N[C@H]1C(=O)N[C@@H](CC(N)=O)C(=O)N[C@H]2C(=O)N[C@H]3C(=O)N[C@H](C(=O)N[C@H](C(=O)NCCNC(=O)/C=C/c4ccc(NS(=O)(=O)c5ccc(C)cc5)cc4)c4cc(O)cc(O)c4-c4cc3ccc4O)[C@H](O)c3ccc(c(Cl)c3)Oc3cc2cc(c3O[C@@H]2O[C@H](CO)[C@@H](O)[C@H](O)[C@H]2O[C@H]2C[C@](C)(N)[C@H](O)[C@H](C)O2)Oc2ccc(cc2Cl)[C@H]1O [Vanc-55] | 12.5 (≈ 22.4 µg/mL) | 2 | 0.39 (≈ 0.698 µg/mL) | 2 | 0.39 (≈ 0.698 µg/mL) | 0.39 (≈ 0.698 µg/mL) | 4 | 12.5 (≈ 22.4 µg/mL) | 32 | 0.39 (≈ 0.698 µg/mL) | 256 | 6.25 (≈ 11.2 µg/mL) | 32 | 0.78 (≈ 1.4 µg/mL) | 8 | > 250 | 0.78 (≈ 1.4 µg/mL) | 1 | 103 ± 10 | 4 | MIC [12]: 0.20 µM (≈ 0.358 µg/mL); IC50 [13]: 201 µM; MIC [14]: 12.5 µM (≈ 22.4 µg/mL); MIC-fold improvement vs. vancomycin [14]: 32; MIC-fold improvement vs. vancomycin [15]: 4; MIC [15]: 0.20 µM (≈ 0.358 µg/mL); IC50 [16]: ≥ 250 µM
CN[C@H](CC(C)C)C(=O)N[C@H]1C(=O)N[C@@H](CC(N)=O)C(=O)N[C@H]2C(=O)N[C@H]3C(=O)N[C@H](C(=O)N[C@H](C(=O)NCCNC(=O)/C=C/c4ccc(NS(=O)(=O)c5ccc(C(C)C)cc5)cc4)c4cc(O)cc(O)c4-c4cc3ccc4O)[C@H](O)c3ccc(c(Cl)c3)Oc3cc2cc(c3O[C@@H]2O[C@H](CO)[C@@H](O)[C@H](O)[C@H]2O[C@H]2C[C@](C)(N)[C@H](O)[C@H](C)O2)Oc2ccc(cc2Cl)[C@H]1O [Vanc-56] | 6.25 (≈ 11.4 µg/mL) | 2 | 0.39 (≈ 0.709 µg/mL) | 4 | 0.20 (≈ 0.364 µg/mL) | 0.39 (≈ 0.709 µg/mL) | 4 | 6.25 (≈ 11.4 µg/mL) | 64 | 0.39 (≈ 0.709 µg/mL) | 256 | 3.13 (≈ 5.69 µg/mL) | 64 | 0.78 (≈ 1.42 µg/mL) | 8 | > 250 | 0.39 (≈ 0.709 µg/mL) | 2 | 104 ± 17 | 4 | MIC-fold improvement vs. vancomycin [1]: 64; MIC [12]: 0.20 µM (≈ 0.364 µg/mL); IC50 [13]: 201 µM; MIC [14]: 6.25 µM (≈ 11.4 µg/mL); MIC-fold improvement vs. vancomycin [14]: 64; MIC-fold improvement vs. vancomycin [15]: 1; MIC [15]: 0.78 µM (≈ 1.42 µg/mL); IC50 [16]: ≥ 250 µM
CNC(CC(C)C)C(=O)NC1C(=O)NC(CC(N)=O)C(=O)NC2C(=O)NC3C(=O)NC(C(=O)NC(C(=O)NCC(=O)Nc4ccc(-c5ccc(OC)cc5)cc4)c4cc(O)cc(O)c4-c4cc3ccc4O)C(O)c3ccc(c(Cl)c3)Oc3cc2cc(c3OC2OC(CO)C(O)C(O)C2OC2CC(C)(N)C(O)C(C)O2)Oc2ccc(cc2Cl)C1O (stereo not drawn) [Vanc-57] | 1.56 (≈ 2.63 µg/mL) | 2 | 0.39 (≈ 0.658 µg/mL) | 0.5 | 1.56 (≈ 2.63 µg/mL) | ≤0.05 | ≥32 | 12.5 (≈ 21.1 µg/mL) | 32 | 1.56 (≈ 2.63 µg/mL) | 64 | 1.56 (≈ 2.63 µg/mL) | 128 | 0.39 (≈ 0.658 µg/mL) | 16 | 6.3 ± 0.2 | 0.20 (≈ 0.338 µg/mL) | 4 | 41 ± 12 | 4 | MIC-fold improvement vs. vancomycin [1]: 256; MIC [12]: 0.20 µM (≈ 0.338 µg/mL); IC50 [13]: 17 µM; MIC [14]: 3.13 µM (≈ 5.28 µg/mL); MIC-fold improvement vs. vancomycin [14]: 128; MIC-fold improvement vs. vancomycin [15]: 8; MIC [15]: 0.10 µM (≈ 0.169 µg/mL); IC50 [16]: 3.7 ± 0.2 µM
CNC(CC(C)C)C(=O)NC1C(=O)NC(CC(N)=O)C(=O)NC2C(=O)NC3C(=O)NC(C(=O)NC(C(=O)NCC(=O)Nc4ccc(C=Cc5ccc(N)cc5)cc4)c4cc(O)cc(O)c4-c4cc3ccc4O)C(O)c3ccc(c(Cl)c3)Oc3cc2cc(c3OC2OC(CO)C(O)C(O)C2OC2CC(C)(N)C(O)C(C)O2)Oc2ccc(cc2Cl)C1O (stereo not drawn) [Vanc-58] | 12.5 (≈ 21.2 µg/mL) | 1 | 0.78 (≈ 1.32 µg/mL) | 1 | 0.78 (≈ 1.32 µg/mL) | 0.78 (≈ 1.32 µg/mL) | 2 | 25 (≈ 42.5 µg/mL) | 16 | 0.78 (≈ 1.32 µg/mL) | 128 | 6.25 (≈ 10.6 µg/mL) | 32 | 1.56 (≈ 2.65 µg/mL) | 4 | > 250 | 0.78 (≈ 1.32 µg/mL) | 1 | 125 ± 57 | 1 | MIC [12]: 0.78 µM (≈ 1.32 µg/mL); IC50 [13]: 191 µM; MIC [14]: 12.5 µM (≈ 21.2 µg/mL); MIC-fold improvement vs. vancomycin [14]: 32; MIC-fold improvement vs. vancomycin [15]: 0.5; MIC [15]: 1.56 µM (≈ 2.65 µg/mL); IC50 [16]: 197 ± 75 µM
